Test results: PMC9516332 (Frontiers in Oncology, 2022)
pIC50: −log10 of the molar value. Read-outs that look alike come from different tables or passages of the source.

Assays:
134 cancer cell lines = assay: Cell viability assay (ATPlite, 72 hours), IC50 on cancer cell line panel
[1] = molecular target: panel of 255 wild-type kinases (Homo sapiens, UniProt P29317); assay: Kinase panel profiling at 1 µmol/L (MSA or IMAP), percentage inhibition; assay type: biochemical; conditions: kinase EPHA2; 1 µmol/L single concentration; read-out: %-inhibition at 1 µmol/L, EPHA2
[2] = molecular target: panel of 255 wild-type kinases (Homo sapiens, UniProt Q9Y6M4); assay: as above; assay type: biochemical; conditions: kinase CK1γ3; 1 µmol/L single concentration; read-out: %-inhibition at 1 µmol/L, CK1γ3

CCn1c(=O)c(-c2cc(NC(=O)Nc3ccccc3)c(F)cc2Br)cc2cnc(NC)cc21 [ripretinib]
pIC50 (134 cancer cell lines; Homo sapiens, MCF7, read-out: IC50 in cell proliferation assay): < 4.50 | pIC50 (134 cancer cell lines; Homo sapiens, MDA-MB-231, read-out: IC50 in cell proliferation assay): 5.90 | pIC50 (134 cancer cell lines; Homo sapiens, MDA-MB-453, read-out: IC50 in cell proliferation assay): 5.45 | pIC50 (134 cancer cell lines; Homo sapiens, MDA-MB-468, read-out: IC50 in cell proliferation assay): 5.61 | pIC50 (134 cancer cell lines; Homo sapiens, MG-63, read-out: IC50 in cell proliferation assay): 4.91 | pIC50 (134 cancer cell lines; Homo sapiens, MIA PaCa-2, read-out: IC50 in cell proliferation assay): 4.62 | pIC50 (134 cancer cell lines; Homo sapiens, MKN-45, read-out: IC50 in cell proliferation assay): < 4.50 | pIC50 (134 cancer cell lines; Homo sapiens, MOLM-13, read-out: IC50 in cell proliferation assay): 6.62 | pIC50 (134 cancer cell lines; Homo sapiens, MOLT-4, read-out: IC50 in cell proliferation assay): 5.42 | pIC50 (134 cancer cell lines; Homo sapiens, MV4-11, read-out: IC50 in cell proliferation assay): 6.24 | pIC50 (134 cancer cell lines; Homo sapiens, MeWo, read-out: IC50 in cell proliferation assay): 5.45 | pIC50 (134 cancer cell lines; Homo sapiens, NCCIT, read-out: IC50 in cell proliferation assay): 5.76 | pIC50 (134 cancer cell lines; Homo sapiens, NCI-H82, read-out: IC50 in cell proliferation assay): 5.96 | pIC50 (134 cancer cell lines; Homo sapiens, NCI-H460, read-out: IC50 in cell proliferation assay): 5.79 | pIC50 (134 cancer cell lines; Homo sapiens, NCI-H661, read-out: IC50 in cell proliferation assay): 4.93 | pIC50 (134 cancer cell lines; Homo sapiens, NCI-H716, read-out: IC50 in cell proliferation assay): 5.84 | pIC50 (134 cancer cell lines; Homo sapiens, NCI-H1650, read-out: IC50 in cell proliferation assay): < 4.50 | pIC50 (134 cancer cell lines; Homo sapiens, NCI-H1975, read-out: IC50 in cell proliferation assay): 5.66 | pIC50 (134 cancer cell lines; Homo sapiens, NCI-H2228, read-out: IC50 in cell proliferation assay): 5.38 | pIC50 (134 cancer cell lines; Homo sapiens, OVCAR-3, read-out: IC50 in cell proliferation assay): 5.70 | pIC50 (134 cancer cell lines; Homo sapiens, PFSK-1, read-out: IC50 in cell proliferation assay): 5.10 | pIC50 (134 cancer cell lines; Homo sapiens, RL95-2, read-out: IC50 in cell proliferation assay): 5.95 | pIC50 (134 cancer cell lines; Homo sapiens, RPMI-7951, read-out: IC50 in cell proliferation assay): 5.19 | pIC50 (134 cancer cell lines; Homo sapiens, RS4-11, read-out: IC50 in cell proliferation assay): 5.93 | pIC50 (134 cancer cell lines; Homo sapiens, Rec1, read-out: IC50 in cell proliferation assay): 5.28 | pIC50 (134 cancer cell lines; Homo sapiens, SHP77, read-out: IC50 in cell proliferation assay): < 4.50 | pIC50 (134 cancer cell lines; Homo sapiens, SK-BR-3, read-out: IC50 in cell proliferation assay): 5.69 | pIC50 (134 cancer cell lines; Homo sapiens, SK-N-AS, read-out: IC50 in cell proliferation assay): 5.63 | pIC50 (134 cancer cell lines; Homo sapiens, SK-N-FI, read-out: IC50 in cell proliferation assay): 5.54 | pIC50 (134 cancer cell lines; Homo sapiens, SK-N-MC, read-out: IC50 in cell proliferation assay): 5.32 | pIC50 (134 cancer cell lines; Homo sapiens, SK-N-SH, read-out: IC50 in cell proliferation assay): 5.44 | pIC50 (134 cancer cell lines; Homo sapiens, SNU-5, read-out: IC50 in cell proliferation assay): 4.52 | pIC50 (134 cancer cell lines; Homo sapiens, SNU-16, read-out: IC50 in cell proliferation assay): 6.11 | pIC50 (134 cancer cell lines; Homo sapiens, SNU-C2B, read-out: IC50 in cell proliferation assay): 4.81 | pIC50 (134 cancer cell lines; Homo sapiens, SU-DHL-1, read-out: IC50 in cell proliferation assay): 5.56 | pIC50 (134 cancer cell lines; Homo sapiens, SU-DHL-6, read-out: IC50 in cell proliferation assay): 5.09 | pIC50 (134 cancer cell lines; Homo sapiens, SUP-T1, read-out: IC50 in cell proliferation assay): 5.61 | pIC50 (134 cancer cell lines; Homo sapiens, SW48, read-out: IC50 in cell proliferation assay): 5.55 | pIC50 (134 cancer cell lines; Homo sapiens, SW480, read-out: IC50 in cell proliferation assay): 5.44 | pIC50 (134 cancer cell lines; Homo sapiens, SW626, read-out: IC50 in cell proliferation assay): 5.41 | pIC50 (134 cancer cell lines; Homo sapiens, SW780, read-out: IC50 in cell proliferation assay): 4.51 | pIC50 (134 cancer cell lines; Homo sapiens, SW837, read-out: IC50 in cell proliferation assay): 5.13 | pIC50 (134 cancer cell lines; Homo sapiens, SW872, read-out: IC50 in cell proliferation assay): 5.61 | pIC50 (134 cancer cell lines; Homo sapiens, SW900, read-out: IC50 in cell proliferation assay): 5.04 | pIC50 (134 cancer cell lines; Homo sapiens, SW948, read-out: IC50 in cell proliferation assay): 5.77 | pIC50 (134 cancer cell lines; Homo sapiens, SW982, read-out: IC50 in cell proliferation assay): 5.65 | pIC50 (134 cancer cell lines; Homo sapiens, SW-620, read-out: IC50 in cell proliferation assay): 5.72 | pIC50 (134 cancer cell lines; Homo sapiens, T98G, read-out: IC50 in cell proliferation assay): 5.46 | pIC50 (134 cancer cell lines; Homo sapiens, TCC-SUP, read-out: IC50 in cell proliferation assay): 5.89 | pIC50 (134 cancer cell lines; Homo sapiens, THP-1, read-out: IC50 in cell proliferation assay): 6.01 | pIC50 (134 cancer cell lines; Homo sapiens, U2OS, read-out: IC50 in cell proliferation assay): 5.47 | pIC50 (134 cancer cell lines; Homo sapiens, U-87 MG, read-out: IC50 in cell proliferation assay): < 4.50 | pIC50 (134 cancer cell lines; Homo sapiens, U-118-MG, read-out: IC50 in cell proliferation assay): 5.37 | pIC50 (134 cancer cell lines; Homo sapiens, UMUC3, read-out: IC50 in cell proliferation assay): 5.54 | pIC50 (134 cancer cell lines; Hs766T, read-out: IC50 in cell proliferation assay): 5.33 | pIC50 (134 cancer cell lines; L-82, read-out: IC50 in cell proliferation assay): 5.52 | pIC50 (134 cancer cell lines; Rh30, read-out: IC50 in cell proliferation assay): 5.52 | inhibition at 1 µM [1]: 100% | inhibition at 1 µM [2]: -8%
